Data: patent publication US20180237441A1, “Chemical Compounds” (GlaxoSmithKline Intellectual Property (No.2) Limited, priority 2015, published 2018)

Target: T1, PERK (Homo sapiens, UniProt Q9NZJ5)
T1 sequence (Q9NZJ5 30-1116): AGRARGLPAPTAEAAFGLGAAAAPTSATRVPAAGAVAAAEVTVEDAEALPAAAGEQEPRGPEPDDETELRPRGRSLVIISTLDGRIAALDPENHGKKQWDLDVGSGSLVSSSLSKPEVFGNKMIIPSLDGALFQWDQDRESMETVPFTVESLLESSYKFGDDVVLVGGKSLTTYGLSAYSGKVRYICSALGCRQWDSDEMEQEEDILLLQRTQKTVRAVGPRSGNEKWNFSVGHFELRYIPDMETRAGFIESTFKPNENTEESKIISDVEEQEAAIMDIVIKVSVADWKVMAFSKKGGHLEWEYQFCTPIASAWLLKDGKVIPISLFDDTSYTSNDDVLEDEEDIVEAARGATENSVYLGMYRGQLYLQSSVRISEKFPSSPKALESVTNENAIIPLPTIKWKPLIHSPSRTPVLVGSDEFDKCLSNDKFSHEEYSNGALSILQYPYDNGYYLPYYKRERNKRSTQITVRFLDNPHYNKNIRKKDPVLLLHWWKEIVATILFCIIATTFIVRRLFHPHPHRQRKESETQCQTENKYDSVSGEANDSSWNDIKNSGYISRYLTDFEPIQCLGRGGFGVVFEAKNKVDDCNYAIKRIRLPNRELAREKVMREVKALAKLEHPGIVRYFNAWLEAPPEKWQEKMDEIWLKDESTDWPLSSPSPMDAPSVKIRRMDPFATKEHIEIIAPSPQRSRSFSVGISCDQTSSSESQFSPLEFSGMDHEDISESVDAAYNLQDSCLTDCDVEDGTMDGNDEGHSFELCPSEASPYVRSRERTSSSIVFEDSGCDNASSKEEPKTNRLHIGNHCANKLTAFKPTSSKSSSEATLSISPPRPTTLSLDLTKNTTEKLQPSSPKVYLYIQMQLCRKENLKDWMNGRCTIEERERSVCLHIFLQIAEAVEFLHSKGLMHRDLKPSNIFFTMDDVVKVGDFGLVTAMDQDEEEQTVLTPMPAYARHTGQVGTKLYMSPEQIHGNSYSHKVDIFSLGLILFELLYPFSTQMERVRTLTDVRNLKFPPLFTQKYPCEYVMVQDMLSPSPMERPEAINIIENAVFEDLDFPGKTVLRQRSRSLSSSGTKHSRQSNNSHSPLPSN
Assay: PERK enzyme assay (HTRF)
Assay type: biochemical
Conditions: 500 μM ATP; at least one experimental run; read-out: PERK Enzyme (500 μM ATP) IC50
Method: Compounds of the invention were assayed for PERK enzyme inhibitory activity with modifications to previously reported conditions (Axten et al. J. Med. Chem., 2012, 55, 7193-7207). Briefly, various concentrations of compounds (maximum 1% DMSO) were dispensed into 384-well plates containing GST-PERK enzyme. After 30-60 minutes of compound pre-incubation, ATP and biotin-eIF2α were added and after 60 minutes the reaction was quenched. After 2 hrs, a fluorescence plate reader was used to measure inhibition and IC50s were calculated.
Enzyme Assay Protocol for PKR-Like Endoplasmic Reticulum Kinase (PERK)—HTRF —% Inhibition
Assay Buffer contains HEPES (pH7.5) 10 mM, CHAPS 2 mM, MgCl2 5 mM and DTT 1 mM in water
Detection Buffer contains HEPES (pH7.5) 10 mM and CHAPS 2 mM in water Assay Plate Preparation:
1. Enzyme Preparation: • 4× Enzyme solution was prepared immediately prior to adding to compound plates. • 3 nM of GST-PERK in Assay buffer. Final [PERK] in 10 μl assay volume=0.75 nM
2. Substrate Preparation: • 4× Substrate solution was prepared immediately prior to adding to compound plates. • 4× Substrate solution in assay buffer 2000 μM ATP and 160 nM Biotin-eIF2α • Final [ATP] in 10 μl assay volume=500 μM • Final [biotin-eIF2a] in 10 μl assay volume=40 nM.
3. Quench/Detection Solution: • 16 nM eIF2 Phospho-Antibody • 16 nM Eu anti-Rabbit IgG • 160 nM Streptavidin-APC • 60 mM EDTA • Final concentration in 10 μL assay volume: 4 nM eIF2 Phospho-Antibody, 4 nM Eu anti-Rabbit IgG 40 nM Streptavidin-APC
The activity of compounds in the PERK enzyme assay was determined at PERK Enzyme (500 μM ATP) IC50 (nM).

IC50 [nM]	Compound
351	CC(C)n1cc(-c2ccc(N3CC(c4ccc(F)cc4F)N(C)C3=O)cc2F)c2c(N)ncnc21 (centres unmarked) [Example 92, 1-(4-(4-amino-7-isopropyl-7H-pyrrolo[2,3-d]pyrimidin-5-yl)-3-fluorophenyl)-4-(2,4-difluorophenyl)-3-methylimidazolidin-2-one]
4	CN1C(=O)N(c2ccc(-c3cn(C4CC4)c4ncnc(N)c34)c(F)c2)CC1c1ccccc1 (single isomer, unassigned) [Example 165, 1-(4-(4-amino-7-cyclopropyl-7H-pyrrolo[2,3-d]pyrimidin-5-yl)-3-fluorophenyl)-3-methyl-4-phenylimidazolidin-2-one]
18.6	Cc1nc(N)c2c(-c3ccc(N4CC(c5ccc(F)cc5)N(C)C4=O)cc3F)cn(C)c2n1 (single isomer, unassigned) [Example 70, 1-(4-(4-amino-2,7-dimethyl-7H-pyrrolo[2,3-d]pyrimidin-5-yl)-3-fluorophenyl)-4-(4-fluorophenyl)-3-methylimidazolidin-2-one]

Same assay, conditions: PERK Enzyme (500 μM ATP) IC50; at least one experimental run; read-out: PERK Activity

IC50 [nM]	Compound
< 100	CN1C(=O)N(c2ccc(-c3cn(C4CC4)c4ncnc(N)c34)c(F)c2)CC1c1ccc(F)cc1 (centres unmarked) [Example 162, 1-(4-(4-amino-7-cyclopropyl-7H-pyrrolo[2,3-d]pyrimidin-5-yl)-3-fluorophenyl)-4-(4-fluorophenyl)-3-methylimidazolidin-2-one]
< 100	Cc1nc(N)c2c(-c3ccc(N4CC(c5ccc(F)cc5)N(C)C4=O)cc3F)cn(C3CC3)c2n1 (single isomer, unassigned) [Example 90, 1-(4-(4-amino-7-cyclopropyl-2-methyl-7H-pyrrolo[2,3-d]pyrimidin-5-yl)-3-fluorophenyl)-4-(4-fluorophenyl)-3-methylimidazolidin-2-one]
< 100	CN1C(=O)N(c2ccc(-c3cn(C4CC4)c4ncnc(N)c34)c(F)c2)CC1c1cc(F)cc(F)c1 (racemic) [Example 175, 1-(4-(4-amino-7-cyclopropyl-7H-pvrrolo[2,3-d]pyrimidin-5-yl)-3-fluorophenyl)-4-(3,5-difluorophenyl)-3-methylimidazolidin-2-one]
< 100	CCN1C(=O)N(c2ccc(-c3cn(C)c4ncnc(N)c34)c(F)c2)CC1c1ccc(F)c(F)c1 (centres unmarked) [Example 97, 1-(4-(4-amino-7-methyl-7H-pyrrolo[2,3-d]pyrimidin-5-yl)-3-fluorophenyl)-4-(3,4-difluorophenyl)-3-ethylimidazolidin-2-one]
100 to 1000	CC(C)n1cc(-c2ccc(N3CC(c4ccc(F)cc4F)N(C)C3=O)cc2F)c2c(N)ncnc21 (centres unmarked) [Example 92, 1-(4-(4-amino-7-isopropyl-7H-pyrrolo[2,3-d]pyrimidin-5-yl)-3-fluorophenyl)-4-(2,4-difluorophenyl)-3-methylimidazolidin-2-one]
< 100	CN1C(=O)N(c2ccc(-c3cn(C4CC4)c4ncnc(N)c34)c(F)c2)CC1c1ccccc1 (single isomer, unassigned) [Example 165, 1-(4-(4-amino-7-cyclopropyl-7H-pyrrolo[2,3-d]pyrimidin-5-yl)-3-fluorophenyl)-3-methyl-4-phenylimidazolidin-2-one]
< 100	CN1C(=O)N(c2ccc(-c3cn(C4CC4)c4ncnc(N)c34)c(Cl)c2)CC1c1cc(F)cc(F)c1 (single isomer, unassigned) [Example 129, 1-(4-(4-amino-7-cyclopropyl-7H-pyrrolo[2,3-d]pyrimidin-5-yl)-3-chlorophenyl)-4-(3,5-difluorophenyl)-3-methylimidazolidin-2-one]
100 to 1000	CN1C(=O)N(c2ccc(-c3cn(C4CC4)c4ncnc(N)c34)c(F)c2)CC1c1ccc(F)cc1 (single isomer, unassigned) [Example 164, 1-(4-(4-amino-7-cyclopropyl-7H-pyrrolo[2,3-d]pyrimidin-5-yl)-3-fluorophenyl)-4-(4-fluorophenyl)-3-methylimidazolidin-2-one]
< 100	Cc1nc(N)c2c(-c3ccc(N4CC(c5ccc(F)cc5)N(C)C4=O)cc3F)cn(C)c2n1 (single isomer, unassigned) [Example 70, 1-(4-(4-amino-2,7-dimethyl-7H-pyrrolo[2,3-d]pyrimidin-5-yl)-3-fluorophenyl)-4-(4-fluorophenyl)-3-methylimidazolidin-2-one]
100 to 1000	CN1C(=O)N(c2ccc(-c3cn(C)c4ncnc(N)c34)c(F)c2)CC1c1cccc(OC(F)F)c1 (centres unmarked) [Example 73, 1-(4-(4-amino-7-methyl-7H-pyrrolo[2,3-d]pyrimidin-5-yl)-3-fluorophenyl)-4-(3-(difluoromethoxy)phenyl)-3-methylimidazolidin-2-one]

Further lines, the molecule ahead of its results:

Compound	IC50 [nM]
Cc1nc(N)c2c(-c3ccc(N4CC(c5c(F)ccc(F)c5F)N(C)C4=O)cc3F)cn(C)c2n1 (centres unmarked) [Example 139, 1-(4-(4-amino-2,7-dimethyl-7H-pyrrolo[2,3-d]pyrimidin-5-yl)-3-fluorophenyl)-3-methyl-4-(2,3,6-trifluorophenyl)imidazolidin-2-one]	100 to 1000
CCN1C(=O)N(c2ccc(-c3cn(C)c4ncnc(N)c34)c(F)c2)CC1c1cccc(F)c1F (centres unmarked) [Example 75, 1-(4-(4-amino-7-methyl-7H-pyrrolo[2,3-d]pyrimidin-5-yl)-3-fluorophenyl)-4-(2,3-difluorophenyl)-3-ethylimidazolidin-2-one]	100 to 1000
CN1C(=O)N(c2ccc(-c3cn(C)c4ncnc(N)c34)c(F)c2)CC1c1cc(F)cc(F)c1F (single isomer, unassigned) [Example 140, 1-(4-(4-amino-7-methyl-7H-pyrrolo[2,3-d]pyrimidin-5-yl)-3-fluorophenyl)-3-methyl-4-(2,3,5-trifluorophenyl)imidazolidin-2-one]	< 100
Cc1nc(N)c2c(-c3ccc(N4CC(c5cc(F)ccc5F)N(C)C4=O)cc3F)cn(C)c2n1 (single isomer, unassigned) [Example 38, 1-(4-(4-amino-2,7-dimethyl-7H-pyrrolo[2,3-d]pyrimidin-5-yl)-3-fluorophenyl)-4-(2,5-difluorophenyl)-3-methylimidazolidin-2-one]	> 1000
CCN1C(=O)N(c2ccc(-c3cn(C)c4ncnc(N)c34)c(F)c2)CC1c1cc(F)cc(C(F)(F)F)c1 (centres unmarked) [Example 85, 1-(4-(4-amino-7-methyl-7H-pyrrolo[2,3-d]pyrimidin-5-yl)-3-fluorophenyl)-3-ethyl-4-(3-fluoro-5-(trifluoromethyl)phenyl)imidazolidin-2-one]	100 to 1000
CCN1C(=O)N(c2ccc(-c3cn(C)c4ncnc(N)c34)c(F)c2)CC1c1cccc(C)n1 (centres unmarked) [Example 50, 1-(4-(4-amino-7-methyl-7H-pyrrolo[2,3-d]pyrimidin-5-yl)-3-fluorophenyl)-3-ethyl-4-(6-methylpyridin-2-yl)imidazolidin-2-one]	100 to 1000
Cc1nc(N)c2c(-c3ccc(N4CC(c5ccc(F)cc5F)N(C)C4=O)cc3F)c(C)n(C)c2n1 (single isomer, unassigned) [Example 11, 1-(4-(4-amino-2,6,7-trimethyl-7H-pyrrolo[2,3-d]pyrimidin-5-yl)-3-fluorophenyl)-4-(2,4-difluorophenyl)-3-methylimidazolidin-2-one]	< 100
CCN1C(=O)N(c2ccc(-c3c(C)n(C)c4ncnc(N)c34)c(F)c2)CC1c1ccc(F)cc1F (centres unmarked) [Example 93, 1-(4-(4-amino-6,7-dimethyl-7H-pyrrolo[2,3-d]pyrimidin-5-yl)-3-fluorophenyl)-4-(2,4-difluorophenyl)-3-ethylimidazolidin-2-one]	100 to 1000
Cn1cc(-c2ccc(N3CC(C4CCCCC4)CC3=O)cc2F)c2c(N)ncnc21 (centres unmarked) [Example 6, 1-(4-(4-Amino-7-methyl-7H-pyrrolo[2,3-d]pyrimidin-5-yl)-3-fluorophenyl)-4-cyclohexyl pyrrolidin-2-one]	> 1000
CN1C(=O)N(c2ccc(-c3cn(C)c4ncnc(N)c34)c(F)c2)CC1C1CCCCC1 (single isomer, unassigned) [Example 63, 1-(4-(4-amino-7-methyl-7H-pyrrolo[2,3-d]pyrimidin-5-yl)-3-fluorophenyl)-4-cyclohexyl-3-methylimidazolidin-2-one]	< 100
